What was measured:
[1] = breast tumors of patients; cited from earlier work
[2] = Gemcitabine incorporation into DNA of cells in pancreatic tumor and normal pancreas (punch biopsies, Advion assay); format: in vivo, human
Protocol: Pancreatic resection was performed using standard techniques and major surgical complications were defined as previously described. Gemcitabine was administered intravenously at 500 mg/m^2 for the first 2 patients (per IRB safety recommendations) and then subsequently at 1000 mg/m^2 with an infusion pump at a fixed dose rate of 10 mg/m^2/min (over 50 min and 100 min respectively) and was delivered at the start of operation and concluded prior to specimen removal. Serum samples were collected at regular intervals during the operation to determine gemcitabine pharmacokinetics.
Immediately after specimen collection, tumors were bivalved by a surgical pathologist and 4.0 mm punch biopsies were taken from the outer and inner portions of the tumors (median 4 samples per tumor) as well from as the normal pancreas. The punch biopsies were sent for quantitative analysis of the gemcitabine metabolite incorporation into the DNA of the cells within the pancreatic tumor (i.e., cancer and stromal cells) and normal pancreas (Advion BioServices, Ithaca, N.Y.). […]
The pancreatectomy specimens were evaluated by a pathologist. […] The locations of the tumor biopsy samples that were used to quantify gemcitabine incorporation were recorded as either inner or outer tumor. […] These specimens were then processed as previously described for quantitative analysis of gemcitabine DNA incorporation (Advion Biosciences). […]

[3] = dose of 300 mg/m^2; cited from earlier work
[4] = Toxicity monitoring in clinical trial of intraoperative gemcitabine infusion; format: in vivo, human
Protocol: Pancreatic resection was performed using standard techniques and major surgical complications were defined as previously described. […] Serum samples were collected at regular intervals during the operation to determine gemcitabine pharmacokinetics. The MD Anderson Data and Safety Monitoring Board oversaw the study. Drug toxicities were evaluated according to Common Terminology Criteria for Adverse Events version 3.0. Daily postoperative labs including absolute neutrophil counts (ANC) and platelet counts were drawn. Patients received full supportive care and the use of growth factors was permitted for myelosuppression (ANC<0.5×10^9). There were 3 patients with grade III neutropenia or leukopenia, and 3 patients with grade II neutropenia. All cytopenias were transient with nadir at approximately postoperative day 6.

[5] = 12 PDAC patients, IV 500 or 1000 mg/m^2 at 10 mg/m^2/min during resection, CTCAE version 3.0

SMILES	intra-tumoral heterogeneity in delivery [1]	gemcitabine incorporation in the tumors relative to normal pancreas ([2]; 12 patients with localized primary PDAC)	drug delivery to tumor ([2]; intraoperative gemcitabine infusion trial)	differences in gemcitabine incorporation into the primary tumors [3]	thrombocytopenia ([4]; 12 PDAC patients, intraoperative IV infusion)	patients with grade II neutropenia [4, 5] [patients]	patients with grade III neutropenia or leukopenia [4, 5] [patients]	nadir of cytopenias ([4]; all cytopenias transient) [postoperative day]	infectious complications ([4]; whole cohort)
COc1cccc2c1C(=O)c1c(O)c3c(c(O)c1C2=O)C[C@@](O)(C(=O)CO)C[C@@H]3O[C@H]1C[C@H](N)[C@H](O)[C@H](C)O1 [doxorubicin]	some parts of the tumor not receiving any drug								
Nc1ccn([C@@H]2O[C@H](CO)[C@@H](O)C2(F)F)c(=O)n1 [gemcitabine]		ranged from sub- to supra-normal pancreas levels	measureable drug delivery in all patients	up to 5 fold	No significant thrombocytopenia	3	3	~6	no infectious complications

— US20170172450A1, “SYSTEM AND METHODS FOR QUANTITATIVELY DESCRIBING BIOPHYSICAL MARKERS” (STC.UNM, priority 2014, published 2017)
